Results: patent EP4678638A1, “NEW E3 UBIQUITIN LIGASE LIGAND, PROTEIN DEGRADATION AGENT AND USE THEREOF” (priority 2023, dated 2024)

What was measured:
Assay type in all cases: cell-based
Details in all cases: Table D16
[1] = molecular target: T1, WEE1 (Homo sapiens, UniProt P30291+Q96SW2); test: Western blot degradation of WEE1 (hPBMC)
T1 construct: evaluate the effects of the compounds of the present disclosure on the expression of target proteins in cells; endogenous in cells; host or cells: hPBMC
T1 sequence (P30291 whole entry): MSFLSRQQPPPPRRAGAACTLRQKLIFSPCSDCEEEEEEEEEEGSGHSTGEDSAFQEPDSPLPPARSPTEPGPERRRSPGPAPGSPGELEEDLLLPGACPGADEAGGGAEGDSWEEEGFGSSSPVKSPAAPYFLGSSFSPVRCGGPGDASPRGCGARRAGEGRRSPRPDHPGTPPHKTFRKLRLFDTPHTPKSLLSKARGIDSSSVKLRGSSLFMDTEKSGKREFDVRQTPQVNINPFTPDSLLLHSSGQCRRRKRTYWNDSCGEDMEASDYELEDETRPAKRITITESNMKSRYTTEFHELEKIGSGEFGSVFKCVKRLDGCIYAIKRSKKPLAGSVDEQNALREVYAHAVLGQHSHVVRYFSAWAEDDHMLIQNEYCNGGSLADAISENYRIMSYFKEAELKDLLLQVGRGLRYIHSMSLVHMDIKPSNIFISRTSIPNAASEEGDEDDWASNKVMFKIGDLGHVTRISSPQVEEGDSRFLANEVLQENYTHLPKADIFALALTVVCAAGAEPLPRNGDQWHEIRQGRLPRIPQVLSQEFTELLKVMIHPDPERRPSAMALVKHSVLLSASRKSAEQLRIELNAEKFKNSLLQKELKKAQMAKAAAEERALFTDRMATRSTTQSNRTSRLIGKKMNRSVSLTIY
T1 sequence (Q96SW2 whole entry): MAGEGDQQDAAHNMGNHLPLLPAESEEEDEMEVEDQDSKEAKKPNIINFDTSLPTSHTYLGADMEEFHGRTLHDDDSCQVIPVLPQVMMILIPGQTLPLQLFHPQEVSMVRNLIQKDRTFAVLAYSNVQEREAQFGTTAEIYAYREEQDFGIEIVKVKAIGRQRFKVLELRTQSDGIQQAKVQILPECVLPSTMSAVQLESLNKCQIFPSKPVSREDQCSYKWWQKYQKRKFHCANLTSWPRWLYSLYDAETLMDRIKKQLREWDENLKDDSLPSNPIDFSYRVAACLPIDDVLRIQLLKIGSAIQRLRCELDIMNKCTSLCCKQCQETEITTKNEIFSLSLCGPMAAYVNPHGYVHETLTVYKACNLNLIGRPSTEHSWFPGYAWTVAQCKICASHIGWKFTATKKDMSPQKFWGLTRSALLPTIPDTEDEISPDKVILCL
T1 sequence (Q16531 whole entry partner): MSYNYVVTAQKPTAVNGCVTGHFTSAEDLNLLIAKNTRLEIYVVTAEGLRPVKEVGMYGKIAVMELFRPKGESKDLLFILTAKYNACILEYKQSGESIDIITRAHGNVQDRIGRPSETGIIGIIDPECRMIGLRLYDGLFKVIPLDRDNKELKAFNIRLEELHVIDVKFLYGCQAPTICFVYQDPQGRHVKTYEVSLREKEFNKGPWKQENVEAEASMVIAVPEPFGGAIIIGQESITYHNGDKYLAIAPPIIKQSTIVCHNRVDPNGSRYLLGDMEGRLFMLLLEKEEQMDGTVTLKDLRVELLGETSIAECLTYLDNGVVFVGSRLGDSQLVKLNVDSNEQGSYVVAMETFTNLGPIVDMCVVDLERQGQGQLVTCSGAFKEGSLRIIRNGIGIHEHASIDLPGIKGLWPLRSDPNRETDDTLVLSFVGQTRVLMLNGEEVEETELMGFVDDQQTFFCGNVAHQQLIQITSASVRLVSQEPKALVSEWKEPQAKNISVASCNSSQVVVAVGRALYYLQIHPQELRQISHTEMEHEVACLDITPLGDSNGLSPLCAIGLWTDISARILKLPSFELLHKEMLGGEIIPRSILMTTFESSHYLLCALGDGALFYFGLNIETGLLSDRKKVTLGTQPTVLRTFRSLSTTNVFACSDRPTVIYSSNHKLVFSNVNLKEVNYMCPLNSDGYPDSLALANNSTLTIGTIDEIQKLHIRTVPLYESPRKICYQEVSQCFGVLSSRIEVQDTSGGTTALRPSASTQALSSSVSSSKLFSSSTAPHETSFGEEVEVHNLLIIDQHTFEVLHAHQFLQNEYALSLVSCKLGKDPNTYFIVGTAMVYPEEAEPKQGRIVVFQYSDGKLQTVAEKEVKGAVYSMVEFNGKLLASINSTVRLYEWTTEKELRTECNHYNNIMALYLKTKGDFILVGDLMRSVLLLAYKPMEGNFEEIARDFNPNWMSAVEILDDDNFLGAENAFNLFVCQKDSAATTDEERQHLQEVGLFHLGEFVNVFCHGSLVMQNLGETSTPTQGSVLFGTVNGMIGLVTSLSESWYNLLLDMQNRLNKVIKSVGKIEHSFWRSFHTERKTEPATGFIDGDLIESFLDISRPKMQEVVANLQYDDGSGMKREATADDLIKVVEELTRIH
Protocol: (§1) Conventional Western blot assay was performed to evaluate the effects of the compounds of the present disclosure on the expression of target proteins in cells.
(§2) (1) Cell Seeding and Protein Harvesting: The selected cells were processed according to the cell seeding procedure and protein harvesting procedure in Table III-2. Table III-2 Cell Seeding and Protein Harvesting Procedures
(§3) (2) To the collected supernatant, 5X SDS sample loading buffer was added, followed by denaturation at 95°C for 5 minutes. The denatured samples were then separated by SDS-PAGE electrophoresis on a polyacrylamide gel. Proteins were transferred to a nitrocellulose membrane (0.45 µm NC membrane), blocked with blocking buffer at room temperature for 1 hour, and subjected to antibody incubation and development procedures according to the antibody manufacturer's instructions (Cell Signaling Technology).
(§4) Half-Maximal Degradation Concentration value (the drug concentration required for degrading proteins by 50%, abbreviated as DC50) reads method: comparing the grayscale values of Western blot bands from drug-treated samples with those from blank DMSO-treated controls, and identifying the drug concentration range at which the grayscale value is half that of the DMSO-treated control bands.
(§5) DC50 values can be calculated using ImageJ software to measure grayscale values of Western blot bands from drug-treated samples. The concentration-response curve is fitted to estimate the drug concentration corresponding to half the grayscale value.
(§6) Target protein remaining (%) refers to the percentage of target protein remaining in hPBMC cells after treatment with protein degrader compounds.
(§7) Calculation method for target protein remaining (%): Use ImageJ software to measure grayscale values of Western blot bands from drug (protein degrader)-treated samples. The grayscale value of drug-treated bands is divided by that of internal control protein bands, and the resulting quotient is normalized to obtain the relative percentage of remaining target protein after protein degrader treatment.
(§8) Target protein degradation rate (%) = 100% - target protein remaining (%).

[2] = molecular target: T2, IKZF1 (Homo sapiens, UniProt Q13422+Q96SW2); test: Western blot degradation of IKZF1 (hPBMC)
T2 construct: evaluate the effects of the compounds of the present disclosure on the expression of target proteins in cells; endogenous in cells; host or cells: hPBMC
T2 sequence (Q13422 whole entry): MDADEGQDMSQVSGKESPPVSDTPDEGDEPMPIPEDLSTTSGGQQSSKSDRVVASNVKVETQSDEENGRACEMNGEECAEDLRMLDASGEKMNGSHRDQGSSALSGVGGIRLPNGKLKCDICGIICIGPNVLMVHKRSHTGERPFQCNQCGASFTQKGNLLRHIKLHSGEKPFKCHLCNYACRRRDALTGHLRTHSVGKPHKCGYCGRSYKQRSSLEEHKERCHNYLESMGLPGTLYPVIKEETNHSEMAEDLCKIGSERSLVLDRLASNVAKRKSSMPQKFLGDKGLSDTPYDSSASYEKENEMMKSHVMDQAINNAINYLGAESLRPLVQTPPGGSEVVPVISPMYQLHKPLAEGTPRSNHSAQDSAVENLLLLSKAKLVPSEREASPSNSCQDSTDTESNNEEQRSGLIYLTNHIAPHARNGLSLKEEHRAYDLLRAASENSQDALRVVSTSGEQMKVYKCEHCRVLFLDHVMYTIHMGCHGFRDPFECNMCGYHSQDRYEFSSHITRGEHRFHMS
T2 sequence (Q96SW2 whole entry): as the sequence (Q96SW2 whole entry) above
T2 sequence (Q16531 whole entry partner): as the sequence (Q16531 whole entry partner) above
Protocol: as §1, §2, §3, §4, §5, §6, §7, §8

[3] = molecular target: T3, IKZF2 (Homo sapiens, UniProt Q96SW2+Q9UKS7); test: Western blot degradation of IKZF2 (hPBMC)
T3 construct: evaluate the effects of the compounds of the present disclosure on the expression of target proteins in cells; endogenous in cells; host or cells: hPBMC
T3 sequence (Q9UKS7 whole entry): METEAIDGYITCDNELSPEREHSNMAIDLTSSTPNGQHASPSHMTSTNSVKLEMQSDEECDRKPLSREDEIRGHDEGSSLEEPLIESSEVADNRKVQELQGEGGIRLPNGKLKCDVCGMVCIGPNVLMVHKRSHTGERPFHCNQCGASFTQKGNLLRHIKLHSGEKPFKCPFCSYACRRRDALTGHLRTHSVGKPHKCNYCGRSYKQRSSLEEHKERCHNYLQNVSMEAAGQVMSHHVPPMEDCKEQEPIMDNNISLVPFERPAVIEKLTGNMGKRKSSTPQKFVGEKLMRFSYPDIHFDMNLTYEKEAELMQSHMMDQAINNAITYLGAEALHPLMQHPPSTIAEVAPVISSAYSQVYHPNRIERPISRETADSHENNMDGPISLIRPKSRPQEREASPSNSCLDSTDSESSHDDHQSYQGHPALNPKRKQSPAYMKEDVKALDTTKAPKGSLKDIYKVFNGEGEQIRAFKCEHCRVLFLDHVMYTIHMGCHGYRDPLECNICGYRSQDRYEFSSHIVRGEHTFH
T3 sequence (Q96SW2 whole entry): as the sequence (Q96SW2 whole entry) above
T3 sequence (Q16531 whole entry partner): as the sequence (Q16531 whole entry partner) above
Protocol: as §1, §2, §3, §4, §5, §6, §7, §8

[4] = molecular target: T4, IKZF3 (Homo sapiens, UniProt Q96SW2+Q9UKT9); test: Western blot degradation of IKZF3 (hPBMC)
T4 construct: evaluate the effects of the compounds of the present disclosure on the expression of target proteins in cells; endogenous in cells; host or cells: hPBMC
Protocol: as §1, §2, §3, §4, §5, §6, §7, §8

[5] = molecular target: T5, CK1a (Homo sapiens, UniProt P48729+Q96SW2); test: Western blot degradation of CK1a (hPBMC)
T5 construct: evaluate the effects of the compounds of the present disclosure on the expression of target proteins in cells; endogenous in cells; host or cells: hPBMC
T5 sequence (P48729 whole entry): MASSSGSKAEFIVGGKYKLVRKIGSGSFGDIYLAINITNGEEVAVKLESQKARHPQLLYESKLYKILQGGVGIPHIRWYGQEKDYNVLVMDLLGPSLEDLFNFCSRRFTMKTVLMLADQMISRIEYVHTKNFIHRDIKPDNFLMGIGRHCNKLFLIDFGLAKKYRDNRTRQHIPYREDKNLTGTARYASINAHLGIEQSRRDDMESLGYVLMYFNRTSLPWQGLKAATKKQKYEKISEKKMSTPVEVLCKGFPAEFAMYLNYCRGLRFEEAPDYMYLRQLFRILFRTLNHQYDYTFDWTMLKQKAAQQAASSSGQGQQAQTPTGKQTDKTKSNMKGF
T5 sequence (Q96SW2 whole entry): as the sequence (Q96SW2 whole entry) above
T5 sequence (Q16531 whole entry partner): as the sequence (Q16531 whole entry partner) above
Protocol: as §1, §2, §3, §4, §5, §6, §7, §8

[6] = molecular target: T6, GSPT1 (Homo sapiens, UniProt P15170+Q96SW2); test: Western blot degradation of GSPT1 (hPBMC)
T6 construct: evaluate the effects of the compounds of the present disclosure on the expression of target proteins in cells; endogenous in cells; host or cells: hPBMC
T6 sequence (P15170 whole entry): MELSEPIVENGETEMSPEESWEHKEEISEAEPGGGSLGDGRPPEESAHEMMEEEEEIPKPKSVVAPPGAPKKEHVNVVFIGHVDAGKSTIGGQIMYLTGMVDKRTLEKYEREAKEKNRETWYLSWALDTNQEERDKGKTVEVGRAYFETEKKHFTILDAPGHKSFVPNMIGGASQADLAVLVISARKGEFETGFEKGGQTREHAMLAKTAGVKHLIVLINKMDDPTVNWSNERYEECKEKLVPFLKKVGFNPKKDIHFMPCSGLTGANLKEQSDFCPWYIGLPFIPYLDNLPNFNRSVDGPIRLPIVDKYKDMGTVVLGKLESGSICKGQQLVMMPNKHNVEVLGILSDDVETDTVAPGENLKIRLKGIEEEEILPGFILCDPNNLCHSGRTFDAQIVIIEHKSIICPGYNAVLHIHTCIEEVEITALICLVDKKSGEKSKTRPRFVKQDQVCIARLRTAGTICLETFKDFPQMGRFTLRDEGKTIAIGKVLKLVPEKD
T6 sequence (Q96SW2 whole entry): as the sequence (Q96SW2 whole entry) above
T6 sequence (Q16531 whole entry partner): as the sequence (Q16531 whole entry partner) above
Protocol: as §1, §2, §3, §4, §5, §6, §7, §8

| SMILES | Degradation of substrate protein WEE1 (substrate protein remaining %) [1] | Degradation of substrate protein IKZF1 (substrate protein remaining %) [2] | Degradation of substrate protein IKZF2 (substrate protein remaining %) [3] | Degradation of substrate protein IKZF3 (substrate protein remaining %) [4] | Degradation of substrate protein CKla (substrate protein remaining %) [5] | Degradation of substrate protein GSPT1 (substrate protein remaining %) [6] |
| --- | --- | --- | --- | --- | --- | --- |
| O=C1CCC(c2ccc(CO)nc2F)C(=O)N1 (stereo not drawn) [GT-07558, 3-(2-Fluoro-6-(hydroxymethyl)pyridin-3-yl)piperidine-2,6-dione] | A (A is defined as 0% ≤ substrate protein remaining % ≤ 80%) | A (A is defined as 0% ≤ substrate protein remaining % ≤ 80%) | B (B is defined as substrate protein remaining % > 80%) | B (B is defined as substrate protein remaining % > 80%) | A (A is defined as 0% ≤ substrate protein remaining % ≤ 80%) | B (B is defined as substrate protein remaining % > 80%) |
| O=C1CCC(Nc2cnccc2CO)C(=O)N1 (stereo not drawn) [GT-07559, 3-((4-(Hydroxymethyl)pyridin-3-yl)amino)piperidine-2,6-dione] | A (A is defined as 0% ≤ substrate protein remaining % ≤ 80%) | A (A is defined as 0% ≤ substrate protein remaining % ≤ 80%) | A (A is defined as 0% ≤ substrate protein remaining % ≤ 80%) | A (A is defined as 0% ≤ substrate protein remaining % ≤ 80%) | A (A is defined as 0% ≤ substrate protein remaining % ≤ 80%) | A (A is defined as 0% ≤ substrate protein remaining % ≤ 80%) |
| O=C1CCN(c2cncc(CO)n2)C(=O)N1 [GT-07632, 1-(6-(Hydroxymethyl)pyrazin-2-yl)dihydropyrimidine-2,4(1H,3H)-dione] | A (A is defined as 0% ≤ substrate protein remaining % ≤ 80%) | A (A is defined as 0% ≤ substrate protein remaining % ≤ 80%) | A (A is defined as 0% ≤ substrate protein remaining % ≤ 80%) | A (A is defined as 0% ≤ substrate protein remaining % ≤ 80%) | A (A is defined as 0% ≤ substrate protein remaining % ≤ 80%) | B (B is defined as substrate protein remaining % > 80%) |
| O=C1CCN(c2cnc(CO)cn2)C(=O)N1 [GT-07634, 1-(5-(Hydroxymethyl)pyrazin-2-yl)dihydropyrimidine-2,4(1H,3H)-dione] | A (A is defined as 0% ≤ substrate protein remaining % ≤ 80%) | A (A is defined as 0% ≤ substrate protein remaining % ≤ 80%) | A (A is defined as 0% ≤ substrate protein remaining % ≤ 80%) | A (A is defined as 0% ≤ substrate protein remaining % ≤ 80%) | A (A is defined as 0% ≤ substrate protein remaining % ≤ 80%) | B (B is defined as substrate protein remaining % > 80%) |
| CC(C)(C)[Si](C)(C)OCc1ccncc1NC1CCC(=O)NC1=O (stereo not drawn) [GT-07638, 3-((4-(((tert-Butyldimethylsilyl)oxy)methyl)pyridin-3-yl)amino)piperidine-2,6-dione] | A (A is defined as 0% ≤ substrate protein remaining % ≤ 80%) | B (B is defined as substrate protein remaining % > 80%) | A (A is defined as 0% ≤ substrate protein remaining % ≤ 80%) | A (A is defined as 0% ≤ substrate protein remaining % ≤ 80%) | B (B is defined as substrate protein remaining % > 80%) | A (A is defined as 0% ≤ substrate protein remaining % ≤ 80%) |
| CC(C)(C)[Si](C)(C)OCc1cncnc1NC1CCC(=O)NC1=O (stereo not drawn) [GT-07639, 3-((5-(((tert-Butyldimethylsilyl)oxy)methyl)pyrimidin-4-yl)amino)piperidine-2,6-dione] | A (A is defined as 0% ≤ substrate protein remaining % ≤ 80%) | A (A is defined as 0% ≤ substrate protein remaining % ≤ 80%) | A (A is defined as 0% ≤ substrate protein remaining % ≤ 80%) | A (A is defined as 0% ≤ substrate protein remaining % ≤ 80%) | A (A is defined as 0% ≤ substrate protein remaining % ≤ 80%) | A (A is defined as 0% ≤ substrate protein remaining % ≤ 80%) |
| O=Cc1ccc(NC2CCC(=O)NC2=O)cn1 (stereo not drawn) [GT-07640, 5-((2,6-Dioxopiperidin-3-yl)amino)picolinaldehyde] | A (A is defined as 0% ≤ substrate protein remaining % ≤ 80%) | A (A is defined as 0% ≤ substrate protein remaining % ≤ 80%) | A (A is defined as 0% ≤ substrate protein remaining % ≤ 80%) | A (A is defined as 0% ≤ substrate protein remaining % ≤ 80%) | B (B is defined as substrate protein remaining % > 80%) | A (A is defined as 0% ≤ substrate protein remaining % ≤ 80%) |
| CC(C)(C)[Si](C)(C)OCc1cc(NC2CCC(=O)NC2=O)ncc1F (stereo not drawn) [GT-07724, 3-((4-(((tertbutyldimethylsilyl)oxy)methyl)-5-fluoropyridin-2-yl)amino)piperidine-2,6-dione] | A (A is defined as 0% ≤ substrate protein remaining % ≤ 80%) | A (A is defined as 0% ≤ substrate protein remaining % ≤ 80%) | A (A is defined as 0% ≤ substrate protein remaining % ≤ 80%) | A (A is defined as 0% ≤ substrate protein remaining % ≤ 80%) | B (B is defined as substrate protein remaining % > 80%) | A (A is defined as 0% ≤ substrate protein remaining % ≤ 80%) |
| O=C1CCN(c2cncc(CCl)n2)C(=O)N1 [GT-07728, 1-(6-(Chloromethyl)pyrazin-2-yl)dihydropyrimidine-2,4(1H,3H)-dione] | A (A is defined as 0% ≤ substrate protein remaining % ≤ 80%) | A (A is defined as 0% ≤ substrate protein remaining % ≤ 80%) | A (A is defined as 0% ≤ substrate protein remaining % ≤ 80%) | A (A is defined as 0% ≤ substrate protein remaining % ≤ 80%) | B (B is defined as substrate protein remaining % > 80%) | B (B is defined as substrate protein remaining % > 80%) |
| NCc1cc(N2CCC(=O)NC2=O)cnc1F [GT-07729, 1-(5-(Aminomethyl)-6-fluoropyridin-3-yl)dihydropyrimidine-2,4(1H,3H)-dione] | A (A is defined as 0% ≤ substrate protein remaining % ≤ 80%) | A (A is defined as 0% ≤ substrate protein remaining % ≤ 80%) | A (A is defined as 0% ≤ substrate protein remaining % ≤ 80%) | A (A is defined as 0% ≤ substrate protein remaining % ≤ 80%) | B (B is defined as substrate protein remaining % > 80%) | A (A is defined as 0% ≤ substrate protein remaining % ≤ 80%) |
| NCc1cncc(N2CCC(=O)NC2=O)n1 [GT-07801, 1-(6-(Aminomethyl)pyrazin-2-yl)dihydropyrimidine-2,4(1H,3H)-dione] | B (B is defined as substrate protein remaining % > 80%) | B (B is defined as substrate protein remaining % > 80%) | B (B is defined as substrate protein remaining % > 80%) | B (B is defined as substrate protein remaining % > 80%) | A (A is defined as 0% ≤ substrate protein remaining % ≤ 80%) | B (B is defined as substrate protein remaining % > 80%) |
